Test system: corn seeds
Assay: Petri dish seed germination assay, corn
Format: in vivo
Procedure: A series of Petri dish seed assays was conducted to evaluate the effects NPG on the seed germination rates of corn, soybean, and canola seeds subjected to cold stress, salt stress and non-stressed conditions (salt stress only for canola). Assays were performed with ten replications of ten seeds/plate (100 total seeds). NPG was applied to seeds at the specified concentrations prior to being placed in Petri plates. Seeds designated for Salt Stress Experiments 1 & 2 were placed in Petri dishes containing a 100 mM NaCl solution and incubated at 21° C.-22° C. in the dark. Cold stress Petri dishes were incubated at 15° C. in the dark. Untreated Controls were incubated at 21° C.-22° C. in the dark as were seeds utilized in the separately conducted non-stressed germination assays. Data was recorded as percent germination at designated times after plating. Statistical analyses were performed using one-way Anova and Kruskal-Wallis one-way analysis of variance on rank combined with Dunn's all pairwise multiple comparison procedure (α=0.05).

With “Methyl 2-deoxy-2-N-(hexadece-9,10-cis-eneoyl)-β-D-glucopyranoside [NPG]” the “Corn Seed Germination” value (Salt Stress (100 mM NaCl) Experiment 1, 10^−6M, 30 HAP) was 34a %, the “Corn Seed Germination” value (Salt Stress (100 mM NaCl) Experiment 1, 10^−6M, 40 HAP) was 83a % and the “Corn Seed Germination” value (Salt Stress (100 mM NaCl) Experiment 1, 10^−6M, 48 HAP) was 96a %. The “Corn Seed Germination” value (Salt Stress (100 mM NaCl) Experiment 1, 10^−7M, 30 HAP) was 23a %, the “Corn Seed Germination” value (Salt Stress (100 mM NaCl) Experiment 1, 10^−7M, 40 HAP) was 68a % and the “Corn Seed Germination” value (Salt Stress (100 mM NaCl) Experiment 1, 10^−7M, 48 HAP) was 91a %.

From US20150305333A1, “USE OF GLUCOSAMINE AMIDES AS PLANT GROWTH AND YIELD ENHANCERS” (PIONEER HI-BRED INTERNATIONAL, INC., priority 2012, published 2015)
